Results from the supplement of paper PMC11208160.

Experiment: recombinant UMI read abundance after kanamycin selection (control-corrected) (log10(CPM+1)); higher = more efficient recombination; extreme values may be limits of the assay; sequences stand for … in AGTGCAGAGAAAATCGGCCAGTTTTCTCTGCCTGCAGTCCGCATGCCGTGGGACCCCTTGGGTTCTAACCTGTTGCCTAGATTTATGCAGCGGACTGCCTTTCTCCCAAAGTGATAAACCGG…AGGTTGGTTTCACT; site = the 11-nt donor
In short: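 Each donor and donor-binding-loop pair was tracked by a 12-nt UMI on a plasmid carrying a promoterless kanamycin gene. With a second plasmid supplying a fixed target and T7-inducible IS621 bridge recombinase, the pool was plated in Escherichia coli on IPTG (0.07 mM) plus kanamycin or unselected. Sequencing of recombinant UMIs across the donor–target junction gave counts expressed as log10(CPM+1) after replicate averaging and control-derived scaling.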

Row | Sequence | recombinant UMI read abundance (log10)
1 | CAAGCAGCATGGACCGGTTTTCCCGGTAATCCGTATTTGCG (site CAAGCAGCTGG) | 0
2 | CAAGCAGCATGGACCGGTTTTCCCGGTAATCCGTATTTGCG (site CAAGCAGCTTG) | 1.68
3 | CAAGCAGCATGGACCGGTTTTCCCGGTAATCCGTATTTGCT (site AAAGCAGCTAG) | 0
4 | CAAGCAGCATGGACCGGTTTTCCCGGTAATCCGTATTTGCT (site CAAACAGCTAG) | 0.972
5 | CAAGCAGCATGGACCGGTTTTCCCGGTAATCCGTATTTGCT (site CAACCAGCTAG) | 0
6 | CAAGCAGCATGGACCGGTTTTCCCGGTAATCCGTATTTGCT (site CAAGAAGCTAG) | 0.892
7 | CAAGCAGCATGGACCGGTTTTCCCGGTAATCCGTATTTGCT (site CAAGCAACTAG) | 1.47
8 | CAAGCAGCATGGACCGGTTTTCCCGGTAATCCGTATTTGCT (site CAAGCACCTAG) | 0
9 | CAAGCAGCATGGACCGGTTTTCCCGGTAATCCGTATTTGCT (site CAAGCAGCTAA) | 0.285
10 | CAAGCAGCATGGACCGGTTTTCCCGGTAATCCGTATTTGCT (site CAAGCAGCTAC) | 0.0274
11 | CAAGCAGCATGGACCGGTTTTCCCGGTAATCCGTATTTGCT (site CAAGCAGCTAG) | 1.84
12 | CAAGCAGCATGGACCGGTTTTCCCGGTAATCCGTATTTGCT (site CAAGCAGCTAT) | 2.19
13 | CAAGCAGCATGGACCGGTTTTCCCGGTAATCCGTATTTGCT (site CAAGCAGCTCG) | 0.839
14 | CAAGCAGCATGGACCGGTTTTCCCGGTAATCCGTATTTGCT (site CAAGCAGCTGG) | 1.4
15 | CAAGCAGCATGGACCGGTTTTCCCGGTAATCCGTATTTGCT (site CAAGCAGCTTG) | 1.3
16 | CAAGCAGCATGGACCGGTTTTCCCGGTAATCCGTATTTGCT (site CAAGCATCTAG) | 0.937
17 | CAAGCAGCATGGACCGGTTTTCCCGGTAATCCGTATTTGCT (site CAAGCCGCTAG) | 0.0579
18 | CAAGCAGCATGGACCGGTTTTCCCGGTAATCCGTATTTGCT (site CAAGCGGCTAG) | 0.638
19 | CAAGCAGCATGGACCGGTTTTCCCGGTAATCCGTATTTGCT (site CAAGCTGCTAG) | 0.0658
20 | CAAGCAGCATGGACCGGTTTTCCCGGTAATCCGTATTTGCT (site CAAGGAGCTAG) | 0
21 | CAAGCAGCATGGACCGGTTTTCCCGGTAATCCGTATTTGCT (site CAAGTAGCTAG) | 0
22 | CAAGCAGCATGGACCGGTTTTCCCGGTAATCCGTATTTGCT (site CAATCAGCTAG) | 0
23 | CAAGCAGCATGGACCGGTTTTCCCGGTAATCCGTATTTGCT (site CACGCAGCTAG) | 0.416

Row | Sequence | recombinant UMI read abundance (log10)
24 | CAAGCAGCATGGACCGGTTTTCCCGGTAATCCGTATTTGCT (site CAGGCAGCTAG) | 0.00336
25 | CAAGCAGCATGGACCGGTTTTCCCGGTAATCCGTATTTGCT (site CATGCAGCTAG) | 0.0527
26 | CAAGCAGCATGGACCGGTTTTCCCGGTAATCCGTATTTGCT (site CCAGCAGCTAG) | 0.00438
27 | CAAGCAGCATGGACCGGTTTTCCCGGTAATCCGTATTTGCT (site CGAGCAGCTAG) | 0.00425
28 | CAAGCAGCATGGACCGGTTTTCCCGGTAATCCGTATTTGCT (site CTAGCAGCTAG) | 0.616
29 | CAAGCAGCATGGACCGGTTTTCCCGGTAATCCGTATTTGCT (site GAAGCAGCTAG) | 0.0166
30 | CAAGCAGCATGGACCGGTTTTCCCGGTAATCCGTATTTGCT (site TAAGCAGCTAG) | 0.00331
31 | CAAGCAGCATGGACCGGTTTTCCCGGTAATCCGTATTTGTT (site CAAGCAGCTAA) | 1.83
32 | CAAGCAGCATGGACCGGTTTTCCCGGTAATCCGTATTTGTT (site CAAGCAGCTAC) | 0.0209
33 | CAAGCAGCATGGACCGGTTTTCCCGGTAATCCGTATTTGTT (site CAAGCAGCTAG) | 2.47
34 | CAAGCAGCATGGACCGGTTTTCCCGGTAATCCGTATTTGTT (site CAAGCAGCTAT) | 1.65
35 | CAAGCCCCATGGACCGGTTTTCCCGGTAATCCGTATTTGTG (site CAAGCACCTCA) | 0.0304
36 | CAAGCCCCATGGACCGGTTTTCCCGGTAATCCGTATTTGTG (site CAAGCCCCTCA) | 0.0397
37 | CAAGCCCCATGGACCGGTTTTCCCGGTAATCCGTATTTGTG (site CAAGCGCCTCA) | 0.0132
38 | CAAGCCCCATGGACCGGTTTTCCCGGTAATCCGTATTTGTG (site CAAGCTCCTCA) | 0.0205
39 | CAAGCGCCATGGACCGGTTTTCCCGGTAATCCGTATTTGAG (site CAAGCGCCTCA) | 0.0151
40 | CAAGCGCCATGGACCGGTTTTCCCGGTAATCCGTATTTGAG (site CAAGCGCCTCC) | 0.0109
41 | CAAGCGCCATGGACCGGTTTTCCCGGTAATCCGTATTTGAG (site CAAGCGCCTCG) | 0.0182
42 | CAAGCGCCATGGACCGGTTTTCCCGGTAATCCGTATTTGAG (site CAAGCGCCTCT) | 0.322
43 | CAAGCGCCATGGACCGGTTTTCCCGGTAATCCGTATTTGTA (site CAAGCGCCTAA) | 0.239
44 | CAAGCGCCATGGACCGGTTTTCCCGGTAATCCGTATTTGTA (site CAAGCGCCTCA) | 0.173
45 | CAAGCGCCATGGACCGGTTTTCCCGGTAATCCGTATTTGTA (site CAAGCGCCTGA) | 1.01
46 | CAAGCGCCATGGACCGGTTTTCCCGGTAATCCGTATTTGTA (site CAAGCGCCTTA) | 1.49

Row | Sequence | recombinant UMI read abundance (log10)
47 | CAAGCGTCATGGACCGGTTTTCCCGGTAATCCGTATTTGTG (site CAAGCGACTCA) | 0.101
48 | CAAGCGTCATGGACCGGTTTTCCCGGTAATCCGTATTTGTG (site CAAGCGCCTCA) | 0.0275
49 | CAAGCGTCATGGACCGGTTTTCCCGGTAATCCGTATTTGTG (site CAAGCGGCTCA) | 0.00505
50 | CAAGCGTCATGGACCGGTTTTCCCGGTAATCCGTATTTGTG (site CAAGCGTCTCA) | 2.6
51 | CAAGGAACATGGACCGGTTTTCCCGGTAATCCGTATTTGCT (site CAAGGAACTAG) | 2.26
52 | CAAGGAGCATGGACCGGTTTTCCCGGTAATCCGTATTTGCT (site CAAGAAGCTAG) | 2.45
53 | CAAGGAGCATGGACCGGTTTTCCCGGTAATCCGTATTTGCT (site CAAGCAGCTAG) | 2.16
54 | CAAGGAGCATGGACCGGTTTTCCCGGTAATCCGTATTTGCT (site CAAGGAGCTAG) | 2.76
55 | CAAGGAGCATGGACCGGTTTTCCCGGTAATCCGTATTTGCT (site CAAGTAGCTAG) | 2.2
56 | CAAGGCCCATGGACCGGTTTTCCCGGTAATCCGTATTTGTC (site CAAGGCCCTGA) | 2.07
57 | CAAGGCTCATGGACCGGTTTTCCCGGTAATCCGTATTTGAA (site CAAAGCTCTTT) | 2.15
58 | CAAGGCTCATGGACCGGTTTTCCCGGTAATCCGTATTTGAA (site CAACGCTCTTT) | 0.00296
59 | CAAGGCTCATGGACCGGTTTTCCCGGTAATCCGTATTTGAA (site CAAGGCTCTTT) | 2.71
60 | CAAGGCTCATGGACCGGTTTTCCCGGTAATCCGTATTTGAA (site CAATGCTCTTT) | 0.368
61 | CAAGTATCATGGACCGGTTTTCCCGGTAATCCGTATTTGAC (site CAAGTATCTGT) | 2.94
62 | CAAGTATCATGGACCGGTTTTCCCGGTAATCCGTATTTGAC (site CCAGTATCTGT) | 0.955
63 | CAAGTATCATGGACCGGTTTTCCCGGTAATCCGTATTTGAC (site CGAGTATCTGT) | 2.2
64 | CAAGTATCATGGACCGGTTTTCCCGGTAATCCGTATTTGAC (site CTAGTATCTGT) | 2.04
65 | CAAGTCACATGGACCGGTTTTCCCGGTAATCCGTATTTGGT (site CAAGTCACTAC) | 1.84
66 | CAAGTCACATGGACCGGTTTTCCCGGTAATCCGTATTTGGT (site CAAGTCACTCC) | 0.00397
67 | CAAGTCACATGGACCGGTTTTCCCGGTAATCCGTATTTGGT (site CAAGTCACTGC) | 2.43
68 | CAAGTCACATGGACCGGTTTTCCCGGTAATCCGTATTTGGT (site CAAGTCACTTC) | 0.155
